Results taken from patent publication US11198731B2 (Exelixis, Inc., priority 2017, dated 2021).

What was measured:
[1] = test system: subjects with medullary thyroid cancer (MTC); assay: Placebo-controlled study of cabozantinib effect on QTc interval; format: in vivo, human
Excerpt: A concentration-QTc relationship could not be definitively established. Changes in cardiac wave form morphology or new rhythms were not observed.

[2] = test system: cytochrome P450 enzymes; assay: In vitro induction of cytochrome P450 enzymes; format: in vitro ADME
[3] = molecular target: T1, CYP3A4 (Homo sapiens, UniProt P08684); assay: In vitro CYP substrate studies; format: in vitro ADME
Target sequence in this assay (P08684 whole entry, species assumed): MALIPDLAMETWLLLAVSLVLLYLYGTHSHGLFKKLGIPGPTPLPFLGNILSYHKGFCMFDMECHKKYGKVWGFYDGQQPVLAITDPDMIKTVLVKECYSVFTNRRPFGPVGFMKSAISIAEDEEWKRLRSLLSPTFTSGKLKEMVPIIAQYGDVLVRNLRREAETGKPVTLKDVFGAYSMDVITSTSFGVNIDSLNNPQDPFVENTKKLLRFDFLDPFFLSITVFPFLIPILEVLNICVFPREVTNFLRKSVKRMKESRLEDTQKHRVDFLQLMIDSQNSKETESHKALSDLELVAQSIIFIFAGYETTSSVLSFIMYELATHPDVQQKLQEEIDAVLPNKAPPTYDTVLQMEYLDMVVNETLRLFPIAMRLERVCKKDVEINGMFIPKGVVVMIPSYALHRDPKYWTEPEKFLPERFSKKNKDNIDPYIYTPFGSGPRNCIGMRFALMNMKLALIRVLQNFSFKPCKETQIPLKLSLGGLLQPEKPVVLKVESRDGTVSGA

[4] = molecular target: CYP2C9 (Homo sapiens, UniProt P11712); assay: In vitro CYP substrate studies; format: in vitro ADME
[5] = test system: human plasma proteins; assay: Plasma protein binding; format: in vitro ADME
[6] = Food effect on cabozantinib exposure; conditions: in vivo
[7] = molecular target: P-glycoprotein (Homo sapiens, UniProt P08183); assay: In vitro P-glycoprotein substrate and inhibition data; format: in vitro ADME
[8] = Effect of proton pump inhibitor esomeprazole on cabozantinib plasma PK; format: in vivo, human; conditions: healthy volunteers
[9] = Time to steady state exposure of cabozantinib; format: in vivo, human; conditions: following first dose
Excerpt: Events that generally have an early onset include hypocalcemia, hypokalemia, thrombocytopenia, hypertension, PPE, abdominal pain, mucosal inflammation, constipation, diarrhea, and vomiting. Adverse events should be managed with supportive car at the earliest signs of toxicity. Dose reductions and treatment interruptions should be considered. Dose reductions are recommended for events that, if persistent, could become serious or intolerable (Table 6-3).

[10] = Nonclinical GLP-compliant toxicology studies; format: in vivo
Excerpt: The development of any new or progressive, unexplained neurological symptoms should be assessed for underlying causes.

[11] = test system: CYP1A1; assay: In vitro induction of cytochrome P450 enzymes; format: in vitro ADME; conditions: high cabozantinib concentrations (30 μM)
[12] = test system: CYP2D6, CYP2C8, CYP2C19, CYP2B6, or CYP1A2; conditions: human
[13] = test system: advanced RCC after prior VEGFR-TKI; conditions: cited from earlier work
[14] = test system: relapsed or refractory metastatic UC; conditions: cited from earlier work
[15] = test system: advanced CRPC with bone metastases; conditions: cited from earlier work
[16] = test system: NSCLC without EGFR genetic alterations; conditions: cited from earlier work
[17] = test system: advanced NSCLC; conditions: cited from earlier work
[18] = test system: advanced RET-rearranged NSCLC; conditions: cited from earlier work
[19] = test system: murine colon carcinoma cell line (MC38-CEA); conditions: in vitro; cited from earlier work
[20] = test system: MC38-CEA tumor; conditions: mouse, in vivo; cited from earlier work
[21] = test system: metastatic triple-negative breast cancer; conditions: in vivo; cited from earlier work
[22] = test system: invasive prostate cancer; conditions: through a neutrophil mediated anticancer innate immune response; cited from earlier work
[23] = test system: previously-untreated advanced RCC of intermediate- or poor-risk; conditions: cited from earlier work
[24] = molecular target: T1, CYP3A4; assay: Clinical pharmacology study XL184-006 with the strong CYP3A4 inducer rifampin; format: in vivo; design: endogenous in cells; host or cells: healthy volunteers, in vivo; conditions: concurrent rifampin; single dose of cabozantinib in healthy volunteers
Target sequence in this assay (P08684 whole entry): as the sequence (P08684 whole entry, species assumed) above

[25] = molecular target: T1, CYP3A4; assay: Clinical pharmacology study XL184-007 with the strong CYP3A4 inhibitor ketoconazole; format: in vivo; design: endogenous in cells; host or cells: healthy volunteers, in vivo; conditions: concurrent ketoconazole; single dose of cabozantinib in healthy volunteers
Target sequence in this assay (P08684 whole entry): as the sequence (P08684 whole entry, species assumed) above

[26] = Cohort 1, 42 evaluable subjects

P-glycoprotein, sequence (P08183 whole entry): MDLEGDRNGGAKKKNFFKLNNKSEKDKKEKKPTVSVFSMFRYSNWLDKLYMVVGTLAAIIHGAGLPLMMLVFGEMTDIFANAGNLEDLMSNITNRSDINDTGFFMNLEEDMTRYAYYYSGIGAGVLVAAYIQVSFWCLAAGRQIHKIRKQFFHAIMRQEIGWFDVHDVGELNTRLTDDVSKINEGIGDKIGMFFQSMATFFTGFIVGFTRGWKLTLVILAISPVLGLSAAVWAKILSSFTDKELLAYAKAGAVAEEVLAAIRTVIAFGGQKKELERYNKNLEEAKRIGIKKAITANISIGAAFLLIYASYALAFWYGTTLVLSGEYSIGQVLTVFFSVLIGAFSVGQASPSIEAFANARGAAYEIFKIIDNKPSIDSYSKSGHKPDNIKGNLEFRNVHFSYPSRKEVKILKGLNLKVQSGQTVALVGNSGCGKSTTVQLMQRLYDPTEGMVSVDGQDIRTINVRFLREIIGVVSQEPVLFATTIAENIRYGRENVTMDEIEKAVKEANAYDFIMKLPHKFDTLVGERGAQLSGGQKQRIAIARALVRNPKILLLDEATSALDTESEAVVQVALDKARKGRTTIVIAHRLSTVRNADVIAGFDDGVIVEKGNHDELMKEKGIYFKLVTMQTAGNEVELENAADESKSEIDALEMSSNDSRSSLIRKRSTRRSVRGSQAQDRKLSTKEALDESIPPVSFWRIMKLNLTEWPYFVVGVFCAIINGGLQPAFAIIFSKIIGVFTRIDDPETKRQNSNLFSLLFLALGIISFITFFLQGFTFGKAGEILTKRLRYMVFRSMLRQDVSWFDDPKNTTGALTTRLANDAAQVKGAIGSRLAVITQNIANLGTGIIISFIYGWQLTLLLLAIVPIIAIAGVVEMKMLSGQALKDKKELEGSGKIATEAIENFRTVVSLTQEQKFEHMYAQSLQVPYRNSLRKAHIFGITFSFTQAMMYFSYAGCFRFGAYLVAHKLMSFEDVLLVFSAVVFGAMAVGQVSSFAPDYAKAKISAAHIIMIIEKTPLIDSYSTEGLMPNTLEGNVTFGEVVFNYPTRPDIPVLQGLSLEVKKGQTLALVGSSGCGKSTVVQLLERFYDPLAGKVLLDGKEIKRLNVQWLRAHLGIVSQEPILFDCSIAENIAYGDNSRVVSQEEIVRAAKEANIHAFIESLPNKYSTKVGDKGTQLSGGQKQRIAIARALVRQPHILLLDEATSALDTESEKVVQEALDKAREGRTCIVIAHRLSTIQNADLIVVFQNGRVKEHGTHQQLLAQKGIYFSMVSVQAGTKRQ
CYP2C9, sequence (P11712 whole entry, species assumed): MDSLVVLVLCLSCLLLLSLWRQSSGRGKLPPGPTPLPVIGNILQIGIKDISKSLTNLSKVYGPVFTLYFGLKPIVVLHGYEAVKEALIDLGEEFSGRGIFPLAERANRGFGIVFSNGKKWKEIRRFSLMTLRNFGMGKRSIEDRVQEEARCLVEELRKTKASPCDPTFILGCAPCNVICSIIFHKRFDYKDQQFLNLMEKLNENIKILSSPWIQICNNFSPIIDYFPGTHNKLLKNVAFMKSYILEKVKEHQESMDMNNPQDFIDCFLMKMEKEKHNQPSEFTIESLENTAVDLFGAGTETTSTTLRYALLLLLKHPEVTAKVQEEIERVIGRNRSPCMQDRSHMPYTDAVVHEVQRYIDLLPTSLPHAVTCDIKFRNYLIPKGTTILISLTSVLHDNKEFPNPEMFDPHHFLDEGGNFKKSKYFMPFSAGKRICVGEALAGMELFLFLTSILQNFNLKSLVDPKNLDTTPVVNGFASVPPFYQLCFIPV

COc1cc2nccc(Oc3ccc(NC(=O)C4(C(=O)Nc5ccc(F)cc5)CC4)cc3)c2cc1OC [cabozantinib, N-(4-{[6,7-bis(methyloxy)quinolin-4-yl]oxy}phenyl)-N′-(4-fluorophenyl)cyclopropane-1,1-dicarboxamide]
Subjects with a QTcF >500 ms ([1]; cabozantinib 140 mg qd): No cabozantinib-treated subjects
Mean increase in QTcF ([1]; cabozantinib 140 mg qd orally, 4 weeks after initiating treatment): 10 to 15 ms
Events of torsades de pointes ([1]; larger safety database (approximately 5000 subjects exposed)): no events of torsades de pointes
Induction of cytochrome P450 enzymes [2]: unlikely to Induce
CYP3A4 substrate status [3]: CYP3A4 substrate
CYP2C9 substrate status [4]: weak substrate
Bound to human plasma proteins [5]: 99.7%
Increase of exposure levels by food [6]: 57%
Inhibition of P-glycoprotein transport activity [7]: potential to inhibit
P-glycoprotein substrate status [7]: unlikely to be a substrate
Effect of esomeprazole on cabozantinib plasma PK [8]: no clinically-relevant effect
Time to steady state exposure [9]: approximately 2 weeks
Risk of adverse neurological effects [10]: minimal risk of adverse neurological effects
Induction of CYP1A1 [11]: possible induction
CYP2D6, CYP2C8, CYP2C19, CYP2B6, CYP1A2 substrate status [12]: not a CYP2D6, CYP2C8, CYP2C19, CYP2B6, or CYP1A2 substrate
Dose reductions from 60 mg to 40 mg ([13]; % of subjects): 60%
Further dose reductions from 40 mg to 20 mg ([13]; % of subjects): 20%
Treatment discontinuations due to AEs ([13]; incidence in each arm): 10%
Number of PRs [14, 26]: 7
Number of complete responses (CR) [14, 26]: 1
ORR [14, 26]: 19.1%
Median OS ([14]; Cohort 1): 8.0 months
Median PFS ([14]; Cohort 1): 3.7 months
Cabozantinib-related Grade 4 AE: hypomagnesemia ([14]; all cohorts (n=67)): 3%
Cabozantinib-related Grade 4 AE: lipase increased ([14]; all cohorts (n=67)): 1%
Grade 3 AE related to cabozantinib: hypertension ([14]; all cohorts (n=67)): 7%
Grade 3 AE related to cabozantinib: hypophosphatemia ([14]; all cohorts (n=67)): 6%
Grade 3 AE related to cabozantinib: fatigue ([14]; all cohorts (n=67), most frequent (5% incidence)): 9%
Immunosuppressive Treg lymphocytes following treatment ([14]; in vivo): reductions
Proportion of subjects with a bone scan response (BSR) per IRC ([15]; at Week 12): 42%
Median PFS per investigator ([15]; exploratory endpoint): 5.6 months
Median duration of BSR ([15]; in vivo): 5.8 months
Median duration of OS (Kaplan-Meier) ([15]; in vivo): 11.0 months
Estimated median OS ([16]; in vivo): 9.2 months
ORR ([16]; in vivo): 11%
PFS ([16]; second or third line treatment): 4.3 months
Grade 3 or 4 AE: diarrhea ([16]; single-agent cabozantinib): 8%
Grade 3 or 4 AE: fatigue ([16]; single-agent cabozantinib): 15%
Grade 3 or 4 AE: hypertension ([16]; single-agent cabozantinib): 25%
Grade 3 or 4 AE: oral mucositis ([16]; single-agent cabozantinib): 10%
Grade 3 or 4 AE: thromboembolic event ([16]; single-agent cabozantinib): 8%
ORR ([17]; 60 subjects, single agent): 10%
Stable disease as best response ([17]; % of subjects): 48.3%
Objective response rate (ORR) ([17]; heavily pre-pretreated unselected NSCLC, early phase clinical trials): approximately 10%
Median PFS ([17]; in vivo): 4.0 months
Overall response rate (ORR) ([18]; RET-rearranged NSCLC): 28%
Grade 3 treatment-related AE: decreased platelet count ([18]; in vivo): 8%
Grade 3 treatment-related AE: hypophosphataemia ([18]; in vivo): 8%
Grade 3 treatment-related AE: increased ALT ([18]; in vivo): 8%
Grade 3 treatment-related AE: increased AST ([18]; in vivo): 8%
Grade 3 treatment-related AE: lipase elevation ([18]; in vivo): 15%
Median OS ([18]; in vivo): 9.9 months
Median PFS ([18]; in vivo): 5.5 months
Treatment-related deaths ([18]; in vivo): No treatment-related deaths
Sensitivity of tumor cells to T-cell-mediated killing [19]: greater sensitivity
Tumor-cell expression of major histocompatibility complex (MHC) class 1 antigen [19]: increased tumor-cell expression
Peripheral CD8+ T-cell counts [20]: increased
Regulatory T-cells (Tregs) and myeloid-derived suppressor cells (MDSCs) [20]: decreased
Treg suppressor activity [20]: decreased
CD14+ monocytes [21]: persistent decrease
Fraction of circulating CD3+ T lymphocytes [21]: persistent increase
Effect on invasive prostate cancer [22]: rapid elimination of invasive prostate cancer
Discontinued study treatment due to an AE ([23]; 16 subjects in each arm): 20%
Adverse events of ≥Grade 3 regardless of causality ([23]; % of subjects): 68%
Reduction of the rate of disease progression or death ([23]; compared with sunitinib): 34%
Median OS ([23]; in vivo): 26.6 months
Median PFS per IRC ([23]; in vivo): 8.6 months
Median PFS per investigator ([23]; in vivo): 8.2 months
≥Grade 3 AE: PPE ([23]; in vivo): 8%
≥Grade 3 AE: diarrhea ([23]; in vivo): 10%
≥Grade 3 AE: fatigue ([23]; in vivo): 6%
≥Grade 3 AE: hematological events ([23]; in vivo): 2%
≥Grade 3 AE: hypertension ([23]; in vivo): 28%
Reduction in cabozantinib exposure (AUC values) [24]: approximately 77%
Increase in cabozantinib exposure (AUC values) [25]: 38%
